In one experiment the target is T1, FLK-1 receptor (Mus musculus, UniProt P35918).
T1 construct: expressed in transfected cells; host or cells: NIH3T3 C7#3
The experiment in a line: FLK-1 ELISA (kinase activity of the FLK-1 receptor in FLK-1/NIH3T3 cells, VEGF stimulated). The class given is cell-based. Put shortly:
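NIH3T3 C7#3 cells expressing FLK-1 were seeded at 25.000 cells/well, serum-starved overnight in 0.1% FBS, then treated with compound for two hours at 37°C (final DMSO 0.5%) before VEGF stimulation. Receptor was captured on anti-rabbit IgG-coated ELISA plates bearing affinity-purified anti-FLK-1 antiserum.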

Another experiment concerns the target PDGF-R (Homo sapiens, UniProt P09619). The experiment in a line: PDGF-R ELISA. The class given is cell-based. From the text: A PDGF-R ELISA is described in International Patent Publication No. WO 96/40116, published December 19, 1996 by Tang et al.

PDGF-R, sequence (P09619 33-1106, species assumed): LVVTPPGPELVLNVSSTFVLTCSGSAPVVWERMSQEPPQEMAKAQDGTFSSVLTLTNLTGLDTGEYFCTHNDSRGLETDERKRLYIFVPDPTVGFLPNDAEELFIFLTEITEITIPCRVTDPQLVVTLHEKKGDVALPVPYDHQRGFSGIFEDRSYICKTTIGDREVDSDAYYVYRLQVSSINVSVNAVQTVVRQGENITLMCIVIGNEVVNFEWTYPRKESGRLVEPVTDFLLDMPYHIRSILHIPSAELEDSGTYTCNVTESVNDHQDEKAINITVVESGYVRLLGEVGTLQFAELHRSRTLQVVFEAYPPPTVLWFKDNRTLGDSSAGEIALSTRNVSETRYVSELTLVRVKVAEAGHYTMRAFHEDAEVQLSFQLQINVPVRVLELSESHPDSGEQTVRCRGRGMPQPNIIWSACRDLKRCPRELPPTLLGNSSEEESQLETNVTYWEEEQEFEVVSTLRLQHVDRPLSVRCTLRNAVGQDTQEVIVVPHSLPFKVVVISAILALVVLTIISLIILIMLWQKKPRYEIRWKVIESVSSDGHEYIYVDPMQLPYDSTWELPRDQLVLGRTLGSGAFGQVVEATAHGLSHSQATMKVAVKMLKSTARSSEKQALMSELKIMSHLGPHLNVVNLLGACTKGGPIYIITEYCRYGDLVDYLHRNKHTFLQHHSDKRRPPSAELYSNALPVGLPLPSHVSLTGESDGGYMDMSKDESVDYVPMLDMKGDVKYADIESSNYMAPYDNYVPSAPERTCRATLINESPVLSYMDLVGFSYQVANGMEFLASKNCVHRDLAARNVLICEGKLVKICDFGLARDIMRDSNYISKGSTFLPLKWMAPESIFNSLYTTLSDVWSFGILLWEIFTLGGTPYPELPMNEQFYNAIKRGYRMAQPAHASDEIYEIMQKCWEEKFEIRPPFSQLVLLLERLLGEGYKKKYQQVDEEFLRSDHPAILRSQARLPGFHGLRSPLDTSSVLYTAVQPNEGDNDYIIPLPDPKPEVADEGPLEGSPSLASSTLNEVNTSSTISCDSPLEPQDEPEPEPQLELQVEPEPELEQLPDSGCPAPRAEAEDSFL
T1 sequence (P35918 20-1345): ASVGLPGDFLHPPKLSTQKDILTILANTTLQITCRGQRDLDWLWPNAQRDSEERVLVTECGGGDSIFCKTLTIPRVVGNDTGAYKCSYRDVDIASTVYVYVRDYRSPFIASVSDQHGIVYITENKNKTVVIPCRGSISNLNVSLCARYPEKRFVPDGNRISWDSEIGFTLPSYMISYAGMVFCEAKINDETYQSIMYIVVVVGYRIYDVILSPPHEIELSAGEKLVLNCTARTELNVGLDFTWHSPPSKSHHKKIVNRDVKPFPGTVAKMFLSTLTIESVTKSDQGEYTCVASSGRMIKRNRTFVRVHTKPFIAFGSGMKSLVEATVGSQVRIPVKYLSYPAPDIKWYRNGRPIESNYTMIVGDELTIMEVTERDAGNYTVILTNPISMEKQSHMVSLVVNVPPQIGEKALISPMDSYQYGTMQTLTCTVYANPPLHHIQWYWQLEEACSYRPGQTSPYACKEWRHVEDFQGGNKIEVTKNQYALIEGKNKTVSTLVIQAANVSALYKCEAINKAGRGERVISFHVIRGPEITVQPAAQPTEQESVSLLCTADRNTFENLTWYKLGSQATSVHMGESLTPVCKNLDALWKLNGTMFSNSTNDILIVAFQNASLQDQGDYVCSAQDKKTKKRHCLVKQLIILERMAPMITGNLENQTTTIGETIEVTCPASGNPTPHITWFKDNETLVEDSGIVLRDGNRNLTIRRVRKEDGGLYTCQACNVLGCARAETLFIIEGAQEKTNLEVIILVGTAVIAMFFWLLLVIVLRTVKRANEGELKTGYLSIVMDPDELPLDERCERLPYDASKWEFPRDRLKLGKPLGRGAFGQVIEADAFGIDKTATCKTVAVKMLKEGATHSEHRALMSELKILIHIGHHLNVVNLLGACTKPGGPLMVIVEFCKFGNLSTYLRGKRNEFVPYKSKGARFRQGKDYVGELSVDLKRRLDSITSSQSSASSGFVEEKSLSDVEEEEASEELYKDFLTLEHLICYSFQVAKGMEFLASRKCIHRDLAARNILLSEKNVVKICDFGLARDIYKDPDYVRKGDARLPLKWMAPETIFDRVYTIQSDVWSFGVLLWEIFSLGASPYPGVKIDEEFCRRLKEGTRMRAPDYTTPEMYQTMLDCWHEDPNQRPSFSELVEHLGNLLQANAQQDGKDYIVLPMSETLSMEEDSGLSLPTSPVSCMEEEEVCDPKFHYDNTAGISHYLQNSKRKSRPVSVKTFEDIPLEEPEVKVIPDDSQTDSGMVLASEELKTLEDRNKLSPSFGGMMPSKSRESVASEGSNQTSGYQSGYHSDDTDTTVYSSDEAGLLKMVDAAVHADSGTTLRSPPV

As to `Cc1[nH]c(C=C2C(=O)Nc3ccc(CCCl)cc32)c(Br)c1Br` [10717/G11], on FLK-1 receptor, the “Fik Kinase %Inhibition” value was 16.4%.
Still for that read-out and setting: for `CCOC(=O)c1c(C)[nH]c(C=C2C(=O)Nc3c(Br)cc(Br)cc32)c1C` [10718/A02] the value was 3.0%; for `COc1cc(Br)c(O)c(C=C2C(=O)Nc3c(Br)cc(Br)cc32)c1` [10718/A03], 7.6%.
On the same count and under the same terms, the figure for `O=C1Nc2c(Br)cc(Br)cc2C1=Cc1ccc2ccccc2c1O` [10718/A04] is 6.9%; for `CCOC(=O)CCc1c(C(=O)OCC)[nH]c(C=C2C(=O)Nc3c(Br)cc(Br)cc32)c1CC(=O)OCC` [10718/A05] it is 3.2%; for `CCOC(=O)c1cc(C=C2C(=O)Nc3c(Br)cc(Br)cc32)oc1C` [10718/A06] it is 7.8%.
The same measure, in the same setting: for `COC(=O)c1[nH]c(C)c(C=C2C(=O)Nc3c(Br)cc(Br)cc32)c1C(=O)OC` [10718/A07] the value was 16.2%; for `O=C1Nc2c(Br)cc(Br)cc2C1=Cc1ccc(Cl)c([N+](=O)[O-])c1` [10718/A08], 3.2%.
`CNS(=O)(=O)c1ccc2c(c1)C(=Cc1cc(Cl)cc(Br)c1O)C(=O)N2` [10727/D04]: on PDGF-R, the “PDGF Kinase %Inhibition” value is listed as 6.4%. Also, on FLK-1 receptor, the “Fik Kinase %Inhibition” value came to 25.9%.
In the same order, the values of `CNS(=O)(=O)c1ccc2c(c1)C(=Cc1ccccc1Sc1ccc(Cl)cc1)C(=O)N2` [10727/D05] are -0.1% and 8.5%.
In the same order, the values of `CNS(=O)(=O)c1ccc2c(c1)C(=Cc1cc3c(cc1Cl)OCO3)C(=O)N2` [10727/D06] are 10.8% and 13.1%.
In the same order, the values of `CNS(=O)(=O)c1ccc2c(c1)C(=Cc1coc3ccccc3c1=O)C(=O)N2` [10727/D07] are -14.7% and 19.7%.
Take `CNS(=O)(=O)c1ccc2c(c1)C(=Cc1cccc(C#N)c1)C(=O)N2` [10727/D08]: at PDGF-R, the “PDGF Kinase %Inhibition” value was 5.0 ! %. The “Fik Kinase %Inhibition” value on FLK-1 receptor was 14.1%.
In the same order, the values of `CNS(=O)(=O)c1ccc2c(c1)C(=Cc1ccc(C#N)cc1)C(=O)N2` [10727/D09] are 7.2% and 8.2%.
In the same order, the values of `CNS(=O)(=O)c1ccc2c(c1)C(=Cc1cc(O)ccc1O)C(=O)N2` [10727/D10] are 9.4% and 11.4%.
In the same order, the values of `CNS(=O)(=O)c1ccc2c(c1)C(=Cc1cccc(OC)c1OC)C(=O)N2` [10727/D11] are 17.4% and 10.5%.
Regarding `CCN(CC)c1ccc(C=C2C(=O)Nc3ccc(S(=O)(=O)Nc4ccc(C(F)(F)F)cc4)cc32)cc1` [10727/E02], the “PDGF Kinase %Inhibition” value on PDGF-R is listed as -6.7%. Moreover, the “Fik Kinase %Inhibition” value on FLK-1 receptor came out at 9.3%.
In the case of `CCc1cc(CC)c(C=C2C(=O)Nc3ccc(S(=O)(=O)Nc4ccc(C(F)(F)F)cc4)cc32)[nH]1` [10727/E03], the “PDGF Kinase %Inhibition” value on PDGF-R turned out to be 5.7%. In addition, on FLK-1 receptor, the “Fik Kinase %Inhibition” value is 11.1%.
In the same order, the values of `O=C1Nc2ccc(S(=O)(=O)Nc3ccc(C(F)(F)F)cc3)cc2C1=Cc1cc(Cl)cc(Br)c1O` [10727/E04] are -7.4% and 46.1%.
In the case of `O=C1Nc2ccc(S(=O)(=O)Nc3ccc(C(F)(F)F)cc3)cc2C1=Cc1ccccc1Sc1ccc(Cl)cc1` [10727/E05], the “PDGF Kinase %Inhibition” value on PDGF-R is recorded as -7.4%. Besides, the “Fik Kinase %Inhibition” value at FLK-1 receptor worked out at 17.1%.
In the same order, the values of `O=C1Nc2ccc(S(=O)(=O)Nc3ccc(C(F)(F)F)cc3)cc2C1=Cc1cc2c(cc1Cl)OCO2` [10727/E06] are 9.4% and 14.2%.
In the same order, the values of `O=C1Nc2ccc(S(=O)(=O)Nc3ccc(C(F)(F)F)cc3)cc2C1=Cc1coc2ccccc2c1=O` [10727/E07] are 10.1% and 20.1%.
On to `N#Cc1cccc(C=C2C(=O)Nc3ccc(S(=O)(=O)Nc4ccc(C(F)(F)F)cc4)cc32)c1` [10727/E08], for which the “PDGF Kinase %Inhibition” value on PDGF-R is given as 23.9%. In addition, the “Fik Kinase %Inhibition” value on FLK-1 receptor is 14.2%.
For the compound `N#Cc1ccc(C=C2C(=O)Nc3ccc(S(=O)(=O)Nc4ccc(C(F)(F)F)cc4)cc32)cc1` [10727/E09], the “PDGF Kinase %Inhibition” value on PDGF-R was found to be 15.9%. Further, the “Fik Kinase %Inhibition” value on FLK-1 receptor is recorded as 9.3%.
In the same order, the values of `O=C1Nc2ccc(S(=O)(=O)Nc3ccc(C(F)(F)F)cc3)cc2C1=Cc1cc(O)ccc1O` [10727/E10] are 5.0% and 9.7%.
In the same order, the values of `COc1cccc(C=C2C(=O)Nc3ccc(S(=O)(=O)Nc4ccc(C(F)(F)F)cc4)cc32)c1OC` [10727/E11] are 7.9% and 37.3%.
In the same order, the values of `CCN(CC)c1ccc(C=C2C(=O)Nc3ccc(S(=O)(=O)N4CCOCC4)cc32)cc1` [10727/F02] are 11.5% and 15.9%.
On to `CCc1cc(CC)c(C=C2C(=O)Nc3ccc(S(=O)(=O)N4CCOCC4)cc32)[nH]1` [10727/F03], for which the “PDGF Kinase %Inhibition” value on PDGF-R was -3.7%. Besides, at FLK-1 receptor, the “Fik Kinase %Inhibition” value is 8.9%.
With `O=C1Nc2ccc(S(=O)(=O)N3CCOCC3)cc2C1=Cc1cc(Cl)cc(Br)c1O` [10727/F04], the “PDGF Kinase %Inhibition” value at PDGF-R was -10.3%. Further, the “Fik Kinase %Inhibition” value at FLK-1 receptor turned out to be 15.3%.
In the same order, the values of `O=C1Nc2ccc(S(=O)(=O)N3CCOCC3)cc2C1=Cc1ccccc1Sc1ccc(Cl)cc1` [10727/F05] are -3.7% and 21.8%.
In the same order, the values of `O=C1Nc2ccc(S(=O)(=O)N3CCOCC3)cc2C1=Cc1cc2c(cc1Cl)OCO2` [10727/F06] are 8.6% and 14.5%.
In the same order, the values of `O=C1Nc2ccc(S(=O)(=O)N3CCOCC3)cc2C1=Cc1coc2ccccc2c1=O` [10727/F07] are 2.1% and 21.4%.
With `N#Cc1cccc(C=C2C(=O)Nc3ccc(S(=O)(=O)N4CCOCC4)cc32)c1` [10727/F08], at PDGF-R, the “PDGF Kinase %Inhibition” value turned out to be 10.1%. In addition, the “Fik Kinase %Inhibition” value at FLK-1 receptor was found to be 12.5%.
In the same order, the values of `N#Cc1ccc(C=C2C(=O)Nc3ccc(S(=O)(=O)N4CCOCC4)cc32)cc1` [10727/F09] are 21.7% and -45.2%.
In the same order, the values of `O=C1Nc2ccc(S(=O)(=O)N3CCOCC3)cc2C1=Cc1cc(O)ccc1O` [10727/F10] are 9.4% and 15.9%.
In the same order, the values of `COc1cccc(C=C2C(=O)Nc3ccc(S(=O)(=O)N4CCOCC4)cc32)c1OC` [10727/F11] are 18.1% and 17.3%.
On to `CCN(CC)c1ccc(C=C2C(=O)Nc3ccc(CCCl)cc32)cc1` [10727/G02], for which the “PDGF Kinase %Inhibition” value at PDGF-R is -20.5%. Also, on FLK-1 receptor, the “Fik Kinase %Inhibition” value came to 7.1%.
As for `CCc1cc(CC)c(C=C2C(=O)Nc3ccc(CCCl)cc32)[nH]1` [10727/G03], at PDGF-R, the “PDGF Kinase %Inhibition” value was -10.3%. Also, the “Fik Kinase %Inhibition” value on FLK-1 receptor is recorded as -3.5%.
With `O=C1Nc2ccc(CCCl)cc2C1=Cc1cc(Cl)cc(Br)c1O` [10727/G04], the “PDGF Kinase %Inhibition” value at PDGF-R is listed as -27.0%. Further, the “Fik Kinase %Inhibition” value on FLK-1 receptor is on record as 27.2%.
In the same order, the values of `O=C1Nc2ccc(CCCl)cc2C1=Cc1ccccc1Sc1ccc(Cl)cc1` [10727/G05] are -2.3% and 8.0%.
In the same order, the values of `O=C1Nc2ccc(CCCl)cc2C1=Cc1cc2c(cc1Cl)OCO2` [10727/G06] are -12.5% and 2.9%.
In the same order, the values of `O=C1Nc2ccc(CCCl)cc2C1=Cc1coc2ccccc2c1=O` [10727/G07] are -24.1% and 7.2%.
On to `N#Cc1cccc(C=C2C(=O)Nc3ccc(CCCl)cc32)c1` [10727/G08], for which the “PDGF Kinase %Inhibition” value at PDGF-R is listed as -7.4%. The “Fik Kinase %Inhibition” value at FLK-1 receptor amounted to 15.7%.
In the same order, the values of `N#Cc1ccc(C=C2C(=O)Nc3ccc(CCCl)cc32)cc1` [10727/G09] are 10.8% and 5.7%.
In the same order, the values of `O=C1Nc2ccc(CCCl)cc2C1=Cc1cc(O)ccc1O` [10727/G10] are 10.8% and -5.6%.
In the case of `COc1cccc(C=C2C(=O)Nc3ccc(CCCl)cc32)c1OC` [10727/G11], at PDGF-R, the “PDGF Kinase %Inhibition” value worked out at 15.9%. The “Fik Kinase %Inhibition” value on FLK-1 receptor came out at 6.9%.
In the same order, the values of `COc1ccc(OC)c(C=C2C(=O)Nc3c(Br)cc(Br)cc32)c1` [10728/A02] are -7.9% and -12.3%.
Take `COc1cccc(OC)c1C=C1C(=O)Nc2c(Br)cc(Br)cc21` [10728/A03]: the “PDGF Kinase %Inhibition” value at PDGF-R is -7.9%. Also, the “Fik Kinase %Inhibition” value on FLK-1 receptor is on record as -7.3%.
In the same order, the values of `COc1cc(C=C2C(=O)Nc3c(Br)cc(Br)cc32)cc(OC)c1` [10728/A04] are 15.6% and -3.5%.
In the same order, the values of `COc1cc(N(C)C)ccc1C=C1C(=O)Nc2c(Br)cc(Br)cc21` [10728/A05] are 4.5% and -10.8%.
In the same order, the values of `O=C1Nc2c(Br)cc(Br)cc2C1=Cc1ccc2c(c1)Cc1ccccc1-2` [10728/A06] are -3.1% and -10.4%.
`O=C1Nc2c(Br)cc(Br)cc2C1=Cc1cccc(C(F)(F)F)c1F` [10728/A07]: on PDGF-R, the “PDGF Kinase %Inhibition” value stood at 31.1%. Besides, at FLK-1 receptor, the “Fik Kinase %Inhibition” value is -21.6%.

For the origin of these results see EP1247803A2, “Indolinone compounds suitable for modulation of protein kinases” (Sugen, Inc., priority 1996, dated 1998).
